Laboratory results as given in patent US5466712A, “Substituted n-aryl-1,2-diaminocyclobutene-3,4-diones” (American Home Products Corporation, priority 1994, dated 1995).

System: Isolated Rat Bladder Strips
Test: Inhibition of Contractions in Isolated Rat Bladder Strips (15 mM KCl-enhanced contractions)
Format: cell-based, Sprague-Dawley rats
Conditions: 0.5 h, 30 min challenge; for inhibition at 30 µM: read-out: Inhibition of Force (%) at (x) μM; for IC50: concentration eliciting 50% inhibition of pre-drug contractile activity
Excerpt: Smooth muscle relaxing activity of the compounds of this invention was established in accordance with standard pharmaceutically accepted test procedures in representative compounds as follows:
Sprague-Dawley rats (150-200 g) are rendered unconscious by CO2 asphyxiation and then euthanized by cervical dislocation. The bladder is removed into warm (37 deg. C.) physiological salt solution (PSS) of the following composition (mM): NaCl, 118.4; KCl, 4.7; […]; NaHCO3, 24.9; KH2 PO4, 1.2; glucose, 11.1; EDTA, 0.023; gassed with […]; pH 7.4. The bladder is opened and then cut into strips 1-2 mm in width and 7-10 mm in length. The strips are subsequently suspended in a 10 mL tissue bath under an initial resting tension of 1.5 g. The strips are held in place by two surgical clips one of which is attached to fixed hook while the other is attached to an isometric force transducer. […] The carbachol is then washed out and the tissue allowed to relax to its resting level of activity. Following 1 further 30 min period of recovery an additional 15 mM KCl are introduced into the tissue bath. This increase in KCl concentration results in a large increase in the amplitude of spontaneous contractions (and initiation of contractions in previously quiescent strips) superimposed upon a small increase in basal tone. Following stabilization of this enhanced level of contractile activity, incremental increases in the concentration of test compound or vehicle are introduced into the tissue bath. Contractile activity is measured for each compound or vehicle concentration during the last […] of a 30 min challenge.
Isometric force developed by the bladder strips is measured using a […] to elicit 50% inhibition of pre-drug contractile activity (IC50 concentration) is calculated from this concentration-response curve. The maximum percentage inhibition of contractile activity evoked by a test compound is also recorded for concentrations of test compound<or equal to 30 μM.

IC50 [nM]	SMILES	inhibition at 30 µM [%]
	CC[C@H](Nc1c(Nc2ccc(C#N)cc2)c(=O)c1=O)c1ccccc1 [Example 11, 4-[3,4-Dioxo-2-((S)-1-phenyl-propylamino)-cyclobut-1-enylamino]-benzonitrile]	28
	C[C@H](Nc1c(Nc2ccc(C#N)cc2)c(=O)c1=O)c1ccccc1 [Example 5, 4-[3.4-Dioxo-2-((S)-1-phenyl-ethylamino)-cyclobut-1-enylamino]-benzonitrile]	38
	CC(C)(Nc1c(Nc2ccc(C#N)cc2)c(=O)c1=O)c1ccccc1 [Example 9, 4-[3,4-Dioxo-2-(1-methyl-1-phenyl-ethylamino)-cyclobut-1-enylamino]-benzonitrile]	22
2300	C[C@@H](Nc1c(Nc2ccncc2)c(=O)c1=O)c1ccccc1 [Example 4, 3-((R)-1-Phenyl-ethylamino)-4-(pyridin-4-ylamino)-cyclobut-3-ene-1,2-dione]	
56	C[C@@H](Nc1c(Nc2ccc(C#N)cc2)c(=O)c1=O)c1ccccc1 [Example 1, 4-[3,4-Dioxo-2-((R)-1-phenyl-ethylamino)-cyclobut-1-enylamino]-benzonitrile]	
